The source of these data is ChEMBL document CHEMBL3872286, “Identification and Mechanistic Evaluation of Hemozoin-Inhibiting Triarylimidazoles Active against Plasmodium falciparum” (ACS Med Chem Lett, 2017).

Structures are written as SMILES. The source made the active and inactive calls. No cut-off for these calls is given here.

In one data set the test system is Plasmodium falciparum. Description: Antimalarial activity against chloroquine-sensitive asexual erythrocyte stage of Plasmodium falciparum NF54 infected in human type O+ erythrocytes assessed as smaller and less complex DNA by flow cytometry. The data set is classed as functional, cell-based.
Settings: not given
In general terms: A flow cytometer gives signals particle by particle.
As for `FC(F)(F)Oc1ccc(-c2nc(-c3ccccc3)c(-c3ccccc3)[nH]2)cc1`, the result was Active.

System in the next data set: not listed separately
Description: Resistance index, ratio of IC50 for chloroquine-resistant asexual erythrocyte stage of Plasmodium falciparum K1 infected in human type O+ erythrocytes to IC50 for chloroquine-sensitive asexual erythrocyte stage of Plasmodium falciparum NF54 infected in human type O+ erythrocytes. It is filed as functional.
Settings: not given
On to `COc1cc(OC)cc(-c2nc(-c3ccccc3)c(-c3ccc(Cl)cc3)[nH]2)c1`, for which the “Ratio IC50” value is on record as 1.6.

For `COc1cc(OC)cc(-c2nc(-c3ccccc3)c(-c3ccccc3)[nH]2)c1`, the “Ratio IC50” value is reported as 0.7.

With `COc1ccc(-c2nc(-c3cc(OC)cc(OC)c3)[nH]c2-c2ccc(OC)cc2)cc1`, the “Ratio IC50” value came out at 1.1.

On to `COc1cc(-c2nc(-c3ccccc3)c(-c3ccccc3)[nH]2)cc(OC)c1O`, for which the “Ratio IC50” value is listed as 1.5.

System in the next data set: not listed separately
Description: Cytotoxicity against CHO cells assessed as decrease in cell viability by MTT assay. The note with it: chinese hamster. The data set is classed as toxicity, cell-based, Cricetulus griseus. Background: Tetrazolium assays rely on reduction of a dye to a coloured formazan, in cell work by metabolically active cells.
As for `COc1cc(OC)cc(-c2nc(-c3ccccc3)c(-c3ccccc3)[nH]2)c1`, the Activity is > 269 µM.

Turning to `FC(F)(F)Oc1ccc(-c2nc(-c3ccccc3)c(-c3ccccc3)[nH]2)cc1`, the Activity is 29 µM.

For `O=[N+]([O-])c1ccc(-c2nc(-c3ccccc3)c(-c3ccccc3)[nH]2)cc1`, the Activity amounted to 149 µM.

As to `COc1ccc(-c2nc(-c3cc(OC)cc(OC)c3)[nH]c2-c2ccc(OC)cc2)cc1`, the Activity was > 240 µM.

System in another data set: not listed separately
Description: Inhibition of beta-hematin formation incubated for 5 to 6 hrs by NP40 detergent-mediated assay.
Settings: not given
On to `c1ccc(-c2nc(-c3ccccc3)c(-c3ccccc3)[nH]2)cc1`, for which the IC50 is > 1000 µM.

As for `c1ccc(-c2ncc[nH]2)cc1` [2-PHENYLIMIDAZOLE], the IC50 is > 1000 µM.

Turning to `COc1cc(OC)cc(-c2nc(-c3ccccc3)c(-c3ccc(Cl)cc3)[nH]2)c1`, the midpoint of inhibition, the IC50, lay at 16.6 µM.

`CCOc1cc(-c2nc(-c3ccc(F)cc3)c(-c3ccc(F)cc3)[nH]2)ccc1O` showed a half-inhibitory concentration (IC50) of 18.7 µM.

Compound `Oc1ccc(-c2nc(-c3ccccc3)c(-c3ccc(Br)cc3)[nH]2)cc1` yielded a concentration for half-maximal inhibition (IC50) of 5.6 µM.

`Oc1ccc(-c2ncc[nH]2)cc1` gave an IC50 of 347 µM.

Compound `Brc1ccc2[nH]cc(-c3nc(-c4ccccc4)c(-c4ccccc4)[nH]3)c2c1` had a half-inhibitory concentration (IC50) of 12.7 µM.

Compound `CCN(CC)CCCC(C)Nc1ccnc2cc(Cl)ccc12` (stereo not given) [CHLOROQUINE] yielded an IC50 of 315 µM.

`COc1cc(-c2nc(-c3ccccc3)c(-c3ccc(Br)cc3)[nH]2)cc(OC)c1O` showed an IC50 of 12.6 µM.

Compound `COc1cc(OC)c(-c2nc(-c3ccsc3)c(-c3ccccc3)[nH]2)cc1OC` had an IC50 of 10 µM.

`COc1cc(OC)cc(-c2nc(-c3ccccc3)c(-c3ccccc3)[nH]2)c1`: half-maximal inhibition (IC50) was put at 14.6 µM.

The compound `COc1cc(-c2nc(-c3ccccc3)c(-c3ccc(O)cc3)[nH]2)cc(OC)c1O` had a 50% inhibitory concentration (IC50) of 2.4 µM.

Regarding `COc1cc(-c2nc(-c3ccc4c(c3)S(=O)(=O)c3ccccc3-4)c(-c3ccccc3)[nH]2)cc(OC)c1O`, inhibition was half-maximal at 6.2 µM (IC50).

On to `Nc1ccc(-c2nc(-c3ccccc3)c(-c3ccccc3)[nH]2)cc1`, for which the half-maximal inhibitory concentration (IC50) is 16.1 µM.

As for `FC(F)(F)Oc1ccc(-c2nc(-c3ccccc3)c(-c3ccccc3)[nH]2)cc1`, the concentration for half-maximal inhibition (IC50) is > 1000 µM.

`O=[N+]([O-])c1ccc(-c2nc(-c3ccccc3)c(-c3ccccc3)[nH]2)cc1` showed a concentration for half-maximal inhibition (IC50) of 19 µM.

Take `Oc1ccc(-c2nc(-c3ccccc3)c(-c3ccccc3)[nH]2)cc1`: the IC50 came to 17.7 µM.

In the case of `COc1ccc(-c2nc(-c3cc(OC)cc(OC)c3)[nH]c2-c2ccc(OC)cc2)cc1`, 13.8 µM corresponded to half-maximal inhibition (IC50).

In turn, `COc1cc(-c2nc(-c3ccccc3)c(-c3ccccc3)[nH]2)cc(OC)c1OC` yielded a half-inhibitory concentration (IC50) of 10.9 µM.

The compound `COc1cc(-c2nc(-c3ccccc3)c(-c3ccccc3)[nH]2)cc(OC)c1O` returned an IC50 of 10.2 µM.

`c1ccc(-c2nc(-c3ccncc3)[nH]c2-c2ccccc2)cc1`: half-maximal inhibition (IC50) was put at 25.4 µM.

Another data set deals with Plasmodium falciparum. Description: Inhibition of beta-hematin formation in human erythrocytes infected with chloroquine-sensitive Plasmodium falciparum D6 assessed as increase in intracellular free heme level by SYBR Green I fluorescence assay. Also on record: scale not given: the % may be the effect or the level left.
Settings: not given
In the case of `Oc1ccc(-c2nc(-c3ccccc3)c(-c3ccc(Br)cc3)[nH]2)cc1`, the Activity came out at 43%.

The next data set relates to Plasmodium falciparum. Description: Antimalarial activity against chloroquine-resistant asexual erythrocyte stage of Plasmodium falciparum K1 infected in human type O+ erythrocytes assessed as growth inhibition incubated for 48 hrs by NBT dye based LDH release assay. It is filed as functional, cell-based. The conditions noted are these: K1, 48 h.
For `COc1cc(OC)cc(-c2nc(-c3ccccc3)c(-c3ccc(Cl)cc3)[nH]2)c1`, the IC50 came out at 2.7 µM.

For `COc1ccc(-c2nc(-c3cc(OC)cc(OC)c3)[nH]c2-c2ccc(OC)cc2)cc1`, the IC50 was 1.8 µM.

Take `COc1cc(-c2nc(-c3ccccc3)c(-c3ccccc3)[nH]2)cc(OC)c1O`: the half-maximal inhibitory concentration (IC50) is 1.9 µM.

System in another data set: not listed separately
Description: Selectivity index, ratio of cytotoxic activity against CHO cells to IC50 for Plasmodium falciparum infected in human type O+ erythrocytes. It is filed as toxicity, cell-based. The conditions noted are these: hamster, read-out: Selectivity Index.
As for `COc1cc(OC)cc(-c2nc(-c3ccccc3)c(-c3ccccc3)[nH]2)c1`, the selectivity ratio is > 206.

For the compound `FC(F)(F)Oc1ccc(-c2nc(-c3ccccc3)c(-c3ccccc3)[nH]2)cc1`, the selectivity ratio was found to be 6.9.

For `O=[N+]([O-])c1ccc(-c2nc(-c3ccccc3)c(-c3ccccc3)[nH]2)cc1`, the selectivity ratio stood at 7.8.

On to `COc1ccc(-c2nc(-c3cc(OC)cc(OC)c3)[nH]c2-c2ccc(OC)cc2)cc1`, for which the selectivity ratio was > 141.

The subject of the next data set is Plasmodium falciparum. Description: Antimalarial activity against chloroquine-sensitive asexual erythrocyte stage of Plasmodium falciparum NF54 infected in human type O+ erythrocytes assessed as decrease in DNA level by flow cytometry. It is filed as functional, cell-based.
Settings: not given
Consider `FC(F)(F)Oc1ccc(-c2nc(-c3ccccc3)c(-c3ccccc3)[nH]2)cc1`, for which the result was Active.

In another data set the test system is Plasmodium falciparum. Description: Antimalarial activity against chloroquine-sensitive asexual erythrocyte stage of Plasmodium falciparum NF54 infected in human type O+ erythrocytes assessed as growth inhibition incubated for 48 hrs by NBT dye based LDH release assay. The conditions noted are these: NF54, 48 h. The data set is classed as functional, cell-based.
As to `COc1cc(OC)cc(-c2nc(-c3ccccc3)c(-c3ccc(Cl)cc3)[nH]2)c1`, the IC50 was determined as 1.7 µM.

For `Oc1ccc(-c2ncc[nH]2)cc1`, the IC50 was > 20 µM.

As to `COc1cc(OC)cc(-c2nc(-c3ccccc3)c(-c3ccccc3)[nH]2)c1`, the IC50 is 7 µM.

`Nc1ccc(-c2nc(-c3ccccc3)c(-c3ccccc3)[nH]2)cc1`: the 50% inhibitory concentration (IC50) was found to be 42 µM.

For `FC(F)(F)Oc1ccc(-c2nc(-c3ccccc3)c(-c3ccccc3)[nH]2)cc1`, the 50% inhibitory concentration (IC50) turned out to be 4.2 µM.

Turning to `O=[N+]([O-])c1ccc(-c2nc(-c3ccccc3)c(-c3ccccc3)[nH]2)cc1`, the IC50 was 15 µM.

As for `Oc1ccc(-c2nc(-c3ccccc3)c(-c3ccccc3)[nH]2)cc1`, the IC50 is > 32 µM.

As for `COc1ccc(-c2nc(-c3cc(OC)cc(OC)c3)[nH]c2-c2ccc(OC)cc2)cc1`, the IC50 was 1.7 µM.

For `COc1cc(-c2nc(-c3ccccc3)c(-c3ccccc3)[nH]2)cc(OC)c1OC`, the IC50 was 3 µM.

Turning to `COc1cc(-c2nc(-c3ccccc3)c(-c3ccccc3)[nH]2)cc(OC)c1O`, the IC50 was 1.3 µM.

The subject of the next data set is Plasmodium falciparum. Description: Antimalarial activity against chloroquine-sensitive Plasmodium falciparum D6 infected in human erythrocytes assessed as inhibition of beta-hematin formation by measuring increase in intracellular free heme level at 2.5 times IC50. The data set is classed as functional, cell-based. Details: scale not given: the % may be the effect or the level left.
Settings: not given
`COc1cc(OC)cc(-c2nc(-c3ccccc3)c(-c3ccccc3)[nH]2)c1`: the Activity is > 50%.

Regarding `COc1ccc(-c2nc(-c3cc(OC)cc(OC)c3)[nH]c2-c2ccc(OC)cc2)cc1`, the Activity was > 50%.

Another data set has as its system Plasmodium falciparum. Description: Antimalarial activity against chloroquine-sensitive asexual erythrocyte stage of Plasmodium falciparum NF54 infected in human type O+ erythrocytes assessed as pyknosis at 3 times IC50 by light microscopy. It is filed as functional, cell-based.
Settings: not given
In the case of `FC(F)(F)Oc1ccc(-c2nc(-c3ccccc3)c(-c3ccccc3)[nH]2)cc1`, the result was Active.

The next data set deals with Plasmodium falciparum. Description: Antimalarial activity against chloroquine-sensitive Plasmodium falciparum D6 infected in human erythrocytes assessed as inhibition of beta-hematin formation by measuring increase in intracellular free heme level. It is filed as functional, cell-based.
Settings: not given
Regarding `COc1cc(OC)cc(-c2nc(-c3ccccc3)c(-c3ccccc3)[nH]2)c1`, the Activity entry is “Dose dependent effect”.

On to `O=[N+]([O-])c1ccc(-c2nc(-c3ccccc3)c(-c3ccccc3)[nH]2)cc1`, for which the Activity was > 20 fg.

For `COc1ccc(-c2nc(-c3cc(OC)cc(OC)c3)[nH]c2-c2ccc(OC)cc2)cc1`, the Activity result is “Dose dependent effect”.

The subject of another data set is Plasmodium falciparum. Description: Antimalarial activity against chloroquine-resistant asexual erythrocyte stage of Plasmodium falciparum K1 infected in human type O+ erythrocytes assessed as growth inhibition incubated for 72 hrs by NBT dye based LDH release assay. The data set is classed as functional, cell-based. The conditions noted are these: K1, 72 h.
With `COc1cc(OC)cc(-c2nc(-c3ccccc3)c(-c3ccccc3)[nH]2)c1`, the IC50 worked out at 4.7 µM.

The next data set concerns Plasmodium falciparum. Description: Antimalarial activity against chloroquine-sensitive asexual erythrocyte stage of Plasmodium falciparum D6 infected in human type O+ erythrocytes assessed as growth inhibition incubated for 48 hrs by NBT dye based LDH release assay. It is filed as functional, cell-based. The conditions noted are these: D6, 48 h. For orientation: LDH in the medium is a marker of cell lysis.
For the compound `c1ccc(-c2nc(-c3ccccc3)c(-c3ccccc3)[nH]2)cc1`, the IC50 was > 20 µM.

Turning to `CCOc1cc(-c2nc(-c3ccc(F)cc3)c(-c3ccc(F)cc3)[nH]2)ccc1O`, the IC50 turned out to be 2.4 µM.

As to `Oc1ccc(-c2nc(-c3ccccc3)c(-c3ccc(Br)cc3)[nH]2)cc1`, the half-inhibitory concentration (IC50) was found to be 9.06 µM.

`Brc1ccc2[nH]cc(-c3nc(-c4ccccc4)c(-c4ccccc4)[nH]3)c2c1`: the half-maximal inhibitory concentration (IC50) was found to be 2.24 µM.

In the case of `COc1cc(-c2nc(-c3ccccc3)c(-c3ccc(Br)cc3)[nH]2)cc(OC)c1O`, the IC50 came to 0.31 µM.

With `COc1cc(OC)c(-c2nc(-c3ccsc3)c(-c3ccccc3)[nH]2)cc1OC`, the IC50 worked out at 11.7 µM.

Turning to `COc1cc(-c2nc(-c3ccccc3)c(-c3ccc(O)cc3)[nH]2)cc(OC)c1O`, the half-inhibitory concentration (IC50) turned out to be 0.7 µM.

On to `COc1cc(-c2nc(-c3ccc4c(c3)S(=O)(=O)c3ccccc3-4)c(-c3ccccc3)[nH]2)cc(OC)c1O`, for which the IC50 worked out at 0.61 µM.

Turning to `c1ccc(-c2nc(-c3ccncc3)[nH]c2-c2ccccc2)cc1`, the IC50 was 10.8 µM.

In general, IC50 refers to the midpoint of a concentration-inhibition curve.
